Test systems include MALME-3M melanoma; SK-MEL-5 melanoma; UO-31 renal; HL-60(TB) leukemia; NCI-H23 lung; SK-MEL-2 melanoma; SNB-19 CNS; OVCAR-3 ovarian; HOP-92 NSCLC; HOP-62 NSCLC.
Test in all cases: NCI tumour cell line growth inhibition, 48 h

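Five compound concentrations were applied to cells in 96-well plates for 48 hours; endpoints were derived by simple linear interpolation of the resulting dose-response curve. GI50 marks 50% less growth. TGI is the concentration that stops growth completely.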

TGI and GI50 data for 11 compounds are collected here from PubChem BioAssay (NCI).

In the case of `CCC(C)OC(=O)C1C2CCC(O2)C1C(=O)O` (stereo not given), the TGI in the assay with MALME-3M melanoma, in the assay on SK-MEL-5 melanoma, with UO-31 renal, with HL-60(TB) leukemia, with NCI-H23 lung and in the assay with SK-MEL-2 melanoma was over 100 µM throughout. Moreover, the TGI with SNB-19 CNS, in the assay with OVCAR-3 ovarian, with HOP-92 NSCLC and with HOP-62 NSCLC was over 100 µM throughout.
For the compound `Cc1cccc2c(N=Nc3ccc(S(N)(=O)=O)cc3)c(O)[nH]c12`, the GI50 in the assay on MALME-3M melanoma, in the assay on SK-MEL-5 melanoma, in the assay with UO-31 renal, with HL-60(TB) leukemia, in the assay on NCI-H23 lung and in the assay on SK-MEL-2 melanoma was over 25 µM in each case. Also, the GI50 in the assay with SNB-19 CNS, with OVCAR-3 ovarian, in the assay with HOP-92 NSCLC and in the assay with HOP-62 NSCLC was over 25 µM throughout. The TGI in the assay with MALME-3M melanoma, with SK-MEL-5 melanoma, in the assay with UO-31 renal, with HL-60(TB) leukemia, with NCI-H23 lung and with SK-MEL-2 melanoma was over 25 µM in each case. In addition, the TGI with SNB-19 CNS, with OVCAR-3 ovarian, with HOP-92 NSCLC and in the assay on HOP-62 NSCLC was over 25 µM each time.
Turning to `O=C1/C(=C\C(Cl)=C/c2ccc([N+](=O)[O-])cc2)SC(=S)N1CCc1ccc(O)cc1`, the GI50 is 1.05 µM with MALME-3M melanoma; 1.63 µM in the assay on SK-MEL-5 melanoma; 0.324 µM with UO-31 renal; 0.341 µM in the assay on HL-60(TB) leukemia; 0.632 µM in the assay with NCI-H23 lung; 2.01 µM in the assay on SK-MEL-2 melanoma. The GI50 was 0.507 µM in the assay with SNB-19 CNS, 0.4 µM in the assay on OVCAR-3 ovarian, 1.6 µM in the assay on HOP-92 NSCLC and 1.41 µM in the assay on HOP-62 NSCLC. Further, the TGI is 2.48 µM in the assay on MALME-3M melanoma; 3.01 µM in the assay with SK-MEL-5 melanoma; 1.24 µM in the assay with UO-31 renal; 6.63 µM in the assay on HL-60(TB) leukemia; 2.17 µM with NCI-H23 lung; 4.37 µM in the assay on SK-MEL-2 melanoma. In addition, the TGI with SNB-19 CNS amounted to 1.86 µM; in the assay with OVCAR-3 ovarian, 1.43 µM; with HOP-92 NSCLC it was 3.29 µM; in the assay on HOP-62 NSCLC it was 4.22 µM.
In the case of `Clc1cc(Cl)c(Cl)c(-c2nc(-c3cccnc3)cs2)c1`, the GI50 in the assay with MALME-3M melanoma was 18.8 µM; with SK-MEL-5 melanoma it was 23.6 µM; in the assay with UO-31 renal, 31 µM; in the assay on HL-60(TB) leukemia, 14.3 µM; in the assay on NCI-H23 lung, 30 µM; in the assay with SK-MEL-2 melanoma it was 22.1 µM. Also, the GI50 is 66.2 µM with SNB-19 CNS, 16.2 µM in the assay on OVCAR-3 ovarian, 15.4 µM with HOP-92 NSCLC and 23.5 µM in the assay with HOP-62 NSCLC. Further, the TGI in the assay on MALME-3M melanoma was 51.4 µM; in the assay on SK-MEL-5 melanoma, over 100 µM; with UO-31 renal, over 100 µM; in the assay on HL-60(TB) leukemia, over 100 µM; in the assay on NCI-H23 lung it was over 100 µM; in the assay on SK-MEL-2 melanoma it was 81.9 µM. For the same compound, the TGI in the assay with SNB-19 CNS is over 100 µM; in the assay with OVCAR-3 ovarian, 81.9 µM; in the assay on HOP-92 NSCLC it was 48.1 µM; with HOP-62 NSCLC it was 83.8 µM.
In the case of `O=C(O)c1ccc(O)c(N=Nc2cc(S(=O)(=O)O)c3ccccc3c2O)c1`, the TGI is over 100 µM with MALME-3M melanoma; over 100 µM in the assay on SK-MEL-5 melanoma; over 100 µM in the assay on UO-31 renal; over 100 µM in the assay with HL-60(TB) leukemia; over 100 µM in the assay on NCI-H23 lung; over 10 µM in the assay on SK-MEL-2 melanoma. In addition, the TGI in the assay with SNB-19 CNS is over 100 µM; with OVCAR-3 ovarian, over 100 µM; in the assay with HOP-92 NSCLC it was over 100 µM; in the assay on HOP-62 NSCLC it was 35.6 µM.
As to `C#CCOCn1cnc2c(=S)nc[nH]c21`, the TGI with MALME-3M melanoma, in the assay on SK-MEL-5 melanoma, in the assay on UO-31 renal, in the assay with HL-60(TB) leukemia, with NCI-H23 lung and in the assay with SK-MEL-2 melanoma was over 100 µM each time. Also, the TGI in the assay on SNB-19 CNS, in the assay with OVCAR-3 ovarian, with HOP-92 NSCLC and in the assay with HOP-62 NSCLC was over 100 µM each time.
On to `C=C1C(=O)O[C@@H]2C(=O)[C@@H](C)[C@@H]3C=CC(=O)[C@@]3(C)[C@@H](OC(=O)/C(C)=C\C)[C@H]12`, for which the TGI with MALME-3M melanoma came to 0.948 µM; in the assay on SK-MEL-5 melanoma it was 3.13 µM; with UO-31 renal it was 2.85 µM; with HL-60(TB) leukemia, 0.415 µM; in the assay with NCI-H23 lung, 9.8 µM; in the assay with SK-MEL-2 melanoma, 9.89 µM. The TGI with SNB-19 CNS was 25.9 µM; with OVCAR-3 ovarian it was 3.67 µM; in the assay on HOP-92 NSCLC, 1.43 µM; with HOP-62 NSCLC, 24.8 µM.
For `Cc1ccccc1NC(=O)C(=O)C(c1cnc2ccc([N+](=O)[O-])cc2n1)[N+](=O)[O-]` (stereo not given), the TGI in the assay with MALME-3M melanoma, with SK-MEL-5 melanoma, with UO-31 renal, with HL-60(TB) leukemia, in the assay on NCI-H23 lung and in the assay with SK-MEL-2 melanoma was over 100 µM in each case. The TGI in the assay with SNB-19 CNS, in the assay with HOP-92 NSCLC and in the assay on HOP-62 NSCLC was over 100 µM throughout.
In the case of `COc1cc(/C=C/C(=O)c2ccc(Nc3ncnc4ccccc34)cc2)cc(OC)c1`, the GI50 was 23.8 µM with MALME-3M melanoma; 10.5 µM in the assay on UO-31 renal; 3.74 µM with HL-60(TB) leukemia; 5.08 µM with NCI-H23 lung; 16.2 µM in the assay on SK-MEL-2 melanoma; 9.99 µM in the assay with SNB-19 CNS. Further, the GI50 with OVCAR-3 ovarian was 4 µM; with HOP-92 NSCLC, 1.32 µM; with HOP-62 NSCLC, 7.13 µM. For the same compound, the TGI with MALME-3M melanoma was over 100 µM; in the assay with UO-31 renal, 28.6 µM; in the assay on HL-60(TB) leukemia it was 30.4 µM; with NCI-H23 lung, 38.2 µM; in the assay with SK-MEL-2 melanoma, 57.7 µM; in the assay on SNB-19 CNS, 83.2 µM. In addition, the TGI in the assay with OVCAR-3 ovarian is 13.5 µM; with HOP-92 NSCLC, 52.7 µM; with HOP-62 NSCLC it was 22.1 µM.
Consider `COc1cc(/C=C2\[C@H]3c4c(c(OC)c(C)c(OC)c4OC)C[C@@H](C(=O)N2Cc2ccccc2)N3C(=O)OC(C)C)c(OC)c(C)c1OC`, for which the TGI in the assay with MALME-3M melanoma, with SK-MEL-5 melanoma, in the assay with UO-31 renal, with HL-60(TB) leukemia, in the assay with NCI-H23 lung and in the assay with SK-MEL-2 melanoma was over 100 µM each time. For the same compound, the TGI in the assay with OVCAR-3 ovarian, in the assay on HOP-92 NSCLC and in the assay on HOP-62 NSCLC was over 100 µM throughout.
As for `COc1ccc(C(c2ccc(C(C)C)cc(=O)c2O)c2ccc3cccnc3c2O)cc1` (stereo not given), the TGI stood at 17.5 µM with MALME-3M melanoma; 2.41 µM with SK-MEL-5 melanoma; 1.78 µM in the assay on UO-31 renal; 6.23 µM in the assay with HL-60(TB) leukemia; 1.58 µM in the assay with NCI-H23 lung; 30.1 µM in the assay on SK-MEL-2 melanoma. The values for the TGI in the assay with OVCAR-3 ovarian, with HOP-92 NSCLC and in the assay on HOP-62 NSCLC were 4.95 µM, 0.898 µM and 2.29 µM, respectively.
